Data published in EP1709964A2, “A method of cosmetic depigmentation care by applying at least one aurone” (ENGELHARD LYON, priority 2005, dated 2006).
Where two headings read alike, the source gives them in different places.

Key:
tyrosinase from mushroom = test: In vitro test of the inhibition of isolated tyrosinase (L-DOPA to dopachrome, OD 490 nm); type: biochemical; settings: for Inhibition of tyrosinase from mushroom, percentage inhibition: 490 nm
From the text: Tyrosinase catalyses the formation of L-dopaquinone, and then dopachrome, from L-Dopa. Dopachrome is a colored compound which is quantifiable by visible spectrophotometry at 490 nm. The use of an active which is capable of modifying the enzymatic activity manifests itself by a variation in the optical density at 490nm.
The ratio of the rates of formation of the dopachrome enables the activations or the inhibitions obtained with the various molecules tested to de determined precisely.
The sample to be tested is incubated in the presence of tyrosinase from mushroom (Sigma) for 5 minutes under agitation. L-DOPA (Sigma), substrate of the tyrosinase, is incubated for 10 minutes in the dark in the presence or the absence of the molecules to be tested. The calculation of the percentage inhibition is made by comparing the OD of the test to the OD of the negative control without molecule.
Within the context of this in vitro test, the aurone derivatives were tested at final concentrations of 10^-4M and 10^-5M.

Human tyrosinase [1] = molecular target: T1, Human tyrosinase (Homo sapiens, UniProt P14679); test: Inhibition of human tyrosinase in a monolayer after 24 h application of the actives on normal human melanocytes (MBTH/L-Dopa, OD 490 nm/protein); type: cell-based; settings: for inhibition at 1000 µM: 10^-3 M; for Inhibition (%): model of Example 15
T1 construct: Normal human melanocytes (originating from abdominal plasty) are sown in a 24-well plate; endogenous in cells; host or cells: normal human melanocytes from abdominal plasty; donors of light, brown and black phototype
T1 sequence (P14679 19-529): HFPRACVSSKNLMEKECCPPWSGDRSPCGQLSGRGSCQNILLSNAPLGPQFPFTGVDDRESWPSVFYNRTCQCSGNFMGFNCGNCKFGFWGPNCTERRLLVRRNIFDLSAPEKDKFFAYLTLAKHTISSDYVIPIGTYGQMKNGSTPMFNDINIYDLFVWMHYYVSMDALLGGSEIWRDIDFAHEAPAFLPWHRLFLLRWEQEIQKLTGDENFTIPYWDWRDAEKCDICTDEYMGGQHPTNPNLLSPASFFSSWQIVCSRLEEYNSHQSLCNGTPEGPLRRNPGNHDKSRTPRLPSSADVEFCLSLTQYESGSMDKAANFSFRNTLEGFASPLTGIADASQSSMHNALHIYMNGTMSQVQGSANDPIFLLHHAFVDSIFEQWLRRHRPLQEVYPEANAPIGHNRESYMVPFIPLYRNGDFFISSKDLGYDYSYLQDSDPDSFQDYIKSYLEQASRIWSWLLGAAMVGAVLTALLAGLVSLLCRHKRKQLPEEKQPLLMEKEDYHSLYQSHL
Protocol: Normal human melanocytes (originating from abdominal plasty) are sown in a 24-well plate at the rate of 80,000 cells per well. They are cultivated up to confluence and the actives are applied for 24 hours in the culture media. After 24 hours, the media are removed and the melanocytes are picked up by mechanical action. An extraction is made by heat shock and the supernatants are then recovered and then incubated with MBTH (Sigma) and L-Dopa (Sigma).
The compound obtained in Example 9b was tested on melanocytes originating from various donors but of light phototypes according to the method described in Example 15. […] Table 6 : Inhibition of tyrosinase by compound 9b on 4 different donors.
The compound obtained in Example 9b is tested on cultures of melanocytes originating from 2 donors of brown phototypes and from one donor of negroid phototype. The method applied is that described in Example 15.
(§1) A study is made with molecules known in the literature for their depigmenting activity. These molecules are applied to the model described in Example 15 so as to compare their efficiency with respect to the aurones described above.

normal human melanocytes = test: Cytotoxicity by PNPP determination (percentage viability); type: cell-based; settings: 24 hours at 37°C, with respect to non-treated wells
Protocol: The cytotoxicity of the actives is studied on normal human melanocytes in a 24-well plate by a determination with PNPP (P-nitrophenyl phosphate), a substance which is converted into p-nitrophenol by the intracellular acid phosphatases of viable cells.
The absorbance of p-nitrophenol at 405 nm is directly proportional to the number of viable cells.
The actives are tested at 2 different concentrations (10^-4 M and 10^-5 M) and are added to the culture medium and are incubated at 37°C for 24 hours. The determination with PNPP is carried out on a cell mat and the results are expressed as a percentage viability with respect to the negative control (non-treated wells). The results obtained are summarized in Table 9 below : Tableau 9 : Percentages viability obtained for the various aurone derivatives on normal human melanocytes (the molecules were tested at 2 concentrations 10^-4 and 10^-5 M.

Human tyrosinase [2] = molecular target: T1, Human tyrosinase; test: In vitro test of the inhibition of human tyrosinase from melanocyte extract (L-Dopa/MBTH, OD 490 nm); type: biochemical; settings: isolated human tyrosinase, read-out: Inhibition of human tyrosinase, percentage inhibition
Protocol: Human tyrosinase obtained from melanocyte extracts originating from healthy donors catalyses the formation of L-Dopaquinone from L-Dopa. L-dopaquinone can be quantified by visible spectrophotometry at 490 nm by virtue of a chromogen : 3-methyl-2-benzothiazolinone hydrazone (MBTH).
The melanocyte extract is obtained after lysis of the cell membranes of the normal human melanocytes which lysis is carried out by a heat shock. The supernatant is recovered and then incubated with MBTH (Sigma) and L-Dopa (Sigma).

melanocytes = tested on: melanocytes
From the text: as §1

[3] = 10^-4M, 24 hours, read-out: Inhibition of human tyrosinase after application on normal human melanocytes, percentage inhibition
[4] = 10^-5M, 24 hours, read-out: Inhibition of human tyrosinase after application on normal human melanocytes, percentage inhibition

| Inhibition of tyrosinase from mushroom, percentage inhibition (tyrosinase from mushroom; 10^-4M) [%] | Inhibition of tyrosinase from mushroom, percentage inhibition (tyrosinase from mushroom; 10^-5M) [%] | inhibition at 100 µM (Human tyrosinase [1]; [3]) [%] | inhibition at 10 µM (Human tyrosinase [1]; [4]) [%] | Molecule | Percentages viability (normal human melanocytes; 10^-4 M) [%] | Percentages viability (normal human melanocytes; 10^-5 M) [%] | other results |
| --- | --- | --- | --- | --- | --- | --- | --- |
| 0 ± 3.51 | 0 ± 3.94 | 2.31 | 0 | COc1cc(O)c2c(c1)O/C(=C\c1ccc(C#N)cc1)C2=O [Example 6d] | 85.65 | 119.36 | – |
| 0 ± 2.42 | 0 ± 5.47 | 0 | 0 | COc1cc(OC)c2c(c1)O/C(=C\c1ccc(C#N)cc1)C2=O [Example 5d, (Z)-2-(4-cyanobenzylidene)-4,6-dimethoxybenzofuran-3(2H)-one] | 98.93 | 96.51 | – |
| 23.85 ± 2.42 | 0 ± 1.73 | 75.3 | 35.2 | O=C1/C(=C/c2ccc(O)cc2)Oc2cc(O)cc(O)c21 [Example 9b, (Z)-4,6-Dihydroxy-2-(4'-hydroxybenzylidene)benzofuran-3(2H)-one] | 90.31 | 128.39 | inhibition at 100 µM (Human tyrosinase [2]; 10^-4M): 18 ± 1.6%; inhibition at 10 µM (Human tyrosinase [2]; 10^-5M): 5.62 ± 2.73%; Inhibition of human tyrosinase after application on normal human melanocytes, percentage inhibition (Human tyrosinase [1]; 10^-4M, 24 hours): 75.31 ± 8.51%; Inhibition of human tyrosinase after application on normal human melanocytes, percentage inhibition (Human tyrosinase [1]; 10^-5M, 24 hours): 35.23 ± 2.34%; inhibition at 100 µM (Human tyrosinase [1]; Donor 1 (light phototype), 10^-4 M, read-out: Inhibition of tyrosinase): 37.8%; inhibition at 10 µM (Human tyrosinase [1]; Donor 1 (light phototype), 10^-5 M, read-out: Inhibition of tyrosinase): -9.77%; inhibition at 100 µM (Human tyrosinase [1]; Donor 2 (light phototype), 10^-4 M, read-out: Inhibition of tyrosinase): 43%; inhibition at 10 µM (Human tyrosinase [1]; Donor 2 (light phototype), 10^-5 M, read-out: Inhibition of tyrosinase): -7.56%; inhibition at 100 µM (Human tyrosinase [1]; Donor 3 (light phototype), 10^-4 M, read-out: Inhibition of tyrosinase): 63.4%; inhibition at 10 µM (Human tyrosinase [1]; Donor 3 (light phototype), 10^-5 M, read-out: Inhibition of tyrosinase): 24.7%; inhibition at 1000 µM (Human tyrosinase [1]; Donor A, brown phototype, read-out: Inhibitions of tyrosinase): 97.5%; inhibition at 100 µM (Human tyrosinase [1]; Donor A, brown phototype, 10^-4 M, read-out: Inhibitions of tyrosinase): 45%; inhibition at 10 µM (Human tyrosinase [1]; Donor A, brown phototype, 10^-5 M, read-out: Inhibitions of tyrosinase): 25.4%; inhibition at 1000 µM (Human tyrosinase [1]; Donor B, brown phototype, read-out: Inhibitions of tyrosinase): 91.8%; inhibition at 100 µM (Human tyrosinase [1]; Donor B, brown phototype, 10^-4 M, read-out: Inhibitions of tyrosinase): 67%; inhibition at 10 µM (Human tyrosinase [1]; Donor B, brown phototype, 10^-5 M, read-out: Inhibitions of tyrosinase): 31.8%; inhibition at 100 µM (Human tyrosinase [1]; Donor S (light phototype), 10^-4 M, read-out: Inhibition of tyrosinase): 75.3%; inhibition at 10 µM (Human tyrosinase [1]; Donor S (light phototype), 10^-5 M, read-out: Inhibition of tyrosinase): 35.2%; inhibition at 100 µM (Human tyrosinase [1]; Donor, 10^-4 M, read-out: Inhibition): 65.8%; inhibition at 10 µM (Human tyrosinase [1]; Donor, 10^-5 M, read-out: Inhibition): 39.5% |
| 54.57 ± 3.01 | 14.63 ±6.73 | – | 4.52 | CCc1ccc(/C=C2\Oc3cc(O)cc(O)c3C2=O)cc1 [Example 7b] | 63.52 | 143.15 | – |
| 23.65 ± 9.36 | 0 ± 5.84 | – | 14.2 | COc1cc(O)c2c(c1)O/C(=C\c1ccc(SC)cc1)C2=O [Example 6c] | – | 116.24 | – |
| 0 ± 1.64 | 1.07 ± 4.37 | 0 | 4.27 | COc1cc(OC)c2c(c1)O/C(=C\c1ccc(SC)cc1)C2=O [Example 5c, (Z)-4,6-dimethoxy-2-(4'-methylthiobenzylidene)benzofuran-3(2H)-one] | 80.08 | 136.13 | – |
| 31.22 ± 3.94 | 0 ± 2.27 | – | 0 | COc1cc(O)c2c(c1)O/C(=C\c1ccccc1)C2=O [Example 6, (Z)-2-Benzylidene-4-hydroxy-6-methoxybenzofuran-3(2H)-one] | – | 121.56 | – |

More lines, now with the values behind:

| Molecule | Inhibition of tyrosinase from mushroom, percentage inhibition (tyrosinase from mushroom; 10^-4M) [%] | Inhibition of tyrosinase from mushroom, percentage inhibition (tyrosinase from mushroom; 10^-5M) [%] | inhibition at 100 µM (Human tyrosinase [1]; [3]) [%] | inhibition at 10 µM (Human tyrosinase [1]; [4]) [%] | Percentages viability (normal human melanocytes; 10^-4 M) [%] | Percentages viability (normal human melanocytes; 10^-5 M) [%] | other results |
| --- | --- | --- | --- | --- | --- | --- | --- |
| O=c1cc(CO)occ1O [Kojic acid, kojic acid] | – | – | – | – | – | – | inhibition (positive control) (tyrosinase from mushroom; kojic acid at 0.01%): 45% |
| 4,6-Dihydroxybenzofuran-3(2H)-one (R1 = OH) and 6-Hydroxybenzofuran-3(2H)-one (R1 = H) [Example 2] | – | – | – | – | 103.84 | 126.09 | Inhibition of human tyrosinase after application on normal human melanocytes, percentage inhibition (Human tyrosinase [1]; 10^-5M, 24 hours): 9.69% |
| COc1cc(OC)c2c(c1)O/C(=C\c1ccc(O)cc1)C2=O [Example 5a, (Z)-4,6-dimethoxy-2-(4'-hydroxybenzylidene)benzofuran-3(2H)-one] | 0 ± 1.33 | 0 ± 3.90 | 14.4 | 27.4 | 104.53 | 90.87 | – |
| COc1cc(OC)c2c(c1)O/C(=C\c1ccccc1)C2=O [Example 5, (Z)-2-Benzylidene-4,6-dimethoxybenzofuran-3(2H)-one] | 0 ± 1.58 | 0 ± 0.28 | 0 | 0 | 83.1 | 98.55 | – |
| COc1cc(OC)c2c(c1)OCC2=O [Example 4, 4,6-Dimethoxybenzofuran-3(2H)-one] | – | – | 0 | 0 | 106.77 | 85.33 | – |
| O=C1O[C@H]([C@@H](O)CO)C(O)=C1OP(=O)(O)O [VitC PMG, reference compound] | – | – | – | – | – | – | Inhibition (%) (Human tyrosinase [1]; 0.03%): 2.93%; Inhibition (%) (Human tyrosinase [1]; 0.3%): 1.55%; Inhibition (%) (Human tyrosinase [1]; 3%): -3.49%; cytotoxicity (melanocytes): no |
| CCc1ccc(/C=C2\Oc3cc(OC)cc(OC)c3C2=O)cc1 [Example 5b, (Z)-4,6-dimethoxy-2-(4'-ethylbenzylidene)benzofuran-3(2H)-one] | 0 ± 4.21 | 0 ± 2.5 | – | 19.4 | – | 99.62 | – |
